Series [1] concerns U937 monocytic cell adhesion to L-NIO-treated ECs. Description: Monocyte adhesion assay, L-NIO-treated (NO-deficient) ECs. To be noted: for U937 cell-EC adhesion after 4 hr treatment: L-NIO. It is filed as cell-based, human. The procedure: Human microvascular endothelial cells (HMEC-1) were purchased from the Center for Disease Control (CDC) and cultured on gelatin-coated tissue culture dishes in growth medium composed of MCDB-131 (VWR International, USA) supplemented with 10% FBS (Fisherbrand, USA), 2 mM L-Glutamine (Invitrogen, USA), 1× antimycotic/antibiotic mixture (Life Technologies, USA), 10 ng/mL huEGF (Millipore, USA) and 1 μg/mL Hydrocortizone (Sigma Aldrich, USA). Human U937 monocyte cells were purchased from ATCC (Manassas, Va., USA) and cultured in suspension in growth medium composed of RPMI 1640 (Fisherbrand, USA) supplemented with 2 mM L-Glutamine (Invitrogen), 10 mM HEPES (Fisherbrand, USA), 10% FBS (Fisherbrand), antimycotic/antibiotic mixture (Life Technologies, USA), 1 mM sodium pyruvate (Life Technologies, USA) and 4.5 mg/mL glucose (Sigma Aldrich, USA).
After 30 min of monocyte-EC interaction at 37° C., monocyte suspension was removed and the EC monolayers gently rinsed twice with PBS (to remove unbound monocytes) prior to fixation in 1% paraformaldehyde (PFA; Electron Microscopy Sciences, USA). Fluorescent images (10 per condition) of labeled U937 cells were then acquired using a Nikon Eclipse Ti microscope (Nikon, Japan) fitted with a Nikon Digital Sight DS-Qi1Mc camera and the number of adherent monocytes was counted using ImageJ software (NIH).

Series [2] deals with isolated sheep pulmonary arteries. Description: Pulmonary artery ring isometric tension: NTG-induced vasorelaxation after pretreatment. The procedure:
All animal procedures were in accordance with the Animal Welfare Act, the Guiding Principles in the Care and Use of Animals approved by the Council of the American Physiological Society, the National Institutes of Health Guide for the Care and Use of Laboratory Animals, and Loma Linda University Institutional Animal Care and Use Committee (IACUC). Pregnant ewes were anesthetized with ketamine (10 mg/kg, IV) and midazolam (5 mg/kg, IV) and anesthesia maintained with inhalation of 1-3% isofluranein O2 throughout surgery as required. Ewes and Fetuses were euthanized with an overdose of Euthasol (pentobarbital sodium, 100 mg/kg) and phenytoin sodium (10 mg/kg; Virbac, Ft. Worth, Tex.).
To assess arterial vasorelaxation in response to NTG treatment, pulmonary arteries (4th-5th order) were harvested from newborn fetal sheep (gestational period between 138-141 days), dissected free of parenchyma and cut into 5 mm long rings (at least 8 per condition) in ice-cold HEPES buffer (Sigma Aldrich, USA). […] Following treatment, rings were mounted onto tungsten wires under 0.5 g of resting tension in organ baths containing KHB, gassed with 95% O2-5% CO2, and maintained at 37° C. Arterial rings were rinsed once with KHB, allowed to equilibrate for at least 30 minutes, and re-tensioned prior to addition of 125 mM KCl (Sigma Aldrich, USA) to ensure rings were still functional. Rings were rinsed three times to remove KCl, allowed to relax, and preconstricted with 10 μM Serotonin (Tocris Bioscience, USA) to achieve 100% contraction. Rings were then exposed to increasing concentrations of free NTG (1 nM to 100 μM) and subsequent recordings of concentration-response curves were acquired using a force displacement transducer (AD Instruments, New Zealand) and analyzed using Prism (Graphpad Software Inc).

Series [3] has as its system endothelial mitochondrial superoxide. Description: Endothelial mitochondrial superoxide production (MitoSOX). To be noted: free NTG 100 μM (20-fold above effective dose), L-NIO-treated ECs. It counts as cell-based, human. The procedure: ECs were plated at sub-confluence on gelatin-coated MatTek dishes under normal culture conditions and subjected to overnight treatment with either L-NIO (3 mM)±[NTG (5, 25, or 100 μM) or NTG-NL (5, 50 or 100 μg/mL)]. To detect mitochondrial superoxide, ECs were labeled with MitoSOX™ (Life Technologies, USA), a mitochondrial superoxide-sensitive fluorescent dye that is widely used to measure mitochondrial ROS production under various conditions, including NTG treatment. ECs were labeled with MitoSOX™ Red at a final dose of 5 μM in KHB for 10 minutes at 37° C., rinsed three times with KHB to remove excess dye and placed at 37° C. in KHB for an additional 10 minutes prior to live cell imaging. Fluorescence images (six per condition) were acquired using Nikon Eclipse Ti microscope and total cell fluorescence intensity from at least 20 cells was analyzed using ImageJ software.

For series [4] the following is noted: in vivo; cited from earlier work.
Series [5] concerns endothelial NO production. Description: EC-secreted (extracellular) NO by Nitric Oxide Analyzer (NOA). It counts as cell-based, human. To be noted: NTG 5 μM, L-NIO-treated ECs. The procedure: (§1) Two independent methods were used to measure the amount of NO produced by ECs. In the first method, ECs were treated overnight with L-NIO (5 mM)±NTG (5 μM) or NTG-NL (10 μg/mL), followed by incubation with a NO-sensitive fluorescent dye DAF-FM diacetate (2 μM; Life Technologies, USA) for 20 minutes at 37° C. Following dye loading, ECs were again treated with L-NIO and NTG during a recovery phase for an additional 1 h in regular growth medium. EC culture media was then rinsed once with Krebs-Henseleit Buffer (KHB) containing 125 mM NaCl, 4.74 mM KCl, 2.5 mM CaCl2, 1.2 mM KH2PO4 1.2 mM MgSO4, 5 mM NaHCO3 and 10 mM Glucose (Sigma Aldrich, USA), replaced with fresh KHB and immediately subjected to live cell fluorescence imaging using Nikon Eclipse Ti microscope. At least 30 cells per condition were analyzed for total cell fluorescence using ImageJ software (NIH). For the second method, a Nitric Oxide Analyzer (NOA; Sievers, USA) was used to measure EC-secreted NO in culture medium. For this measurement, confluent ECs were treated overnight with either L-NIO (5 mM)±NTG (5 μM) or NTG alone, followed by sequential 1 h incubations with KHB without and with L-NIO±NTG at 37° C. KHB conditioned medium (4 replicates per condition) was then collected and analyzed using NOA.

Series [6] deals with endothelial ICAM-1 clustering. In words: ICAM-1 clustering in U937 cell-EC co-cultures. It is filed as cell-based, human. The note with it: NTG 5 μM. As for the experimental part: ECs were grown to confluence on glass coverslips under normal growth conditions and treated with L-NIO (5 mM)±[NTG (5 μM) or NTG-NL (5 μg/mL)] for 24 h. Next, a monocyte adhesion assay was performed (as described earlier) and the monocyte-EC co-cultures fixed, permeabilized with 0.1% Triton X-100, blocked with 2% bovine serum albumin (BSA; Millipore, USA), and sequentially incubated with primary anti-ICAM-1 mouse antibody (Santa Cruz Biotechnology, USA) and secondary FITC-conjugated DyLight 488 anti-mouse IgG (Vector Labs, USA). To visualize actin microfilaments, monocyte-EC co-cultures were incubated with Alexa Fluor 594-Phalloidin (BD Biosciences, USA). Coverslips were mounted onto glass slides and fluorescence images (15 per condition) were taken using a Nikon Eclipse Ti microscope fitted with a Nikon Digital Sight DS-Qi1Mc camera. ICAM-1 clustering index was determined using ImageJ by normalizing the total monocyte fluorescence (from at least 30 cells) to the background of the surrounding EC cytoplasm.

Series [7] has as its system endothelial NO production. In words: Intracellular NO by DAF-FM diacetate fluorescence. It is filed as cell-based, human. To be noted: NTG 5 μM. As for the experimental part:
as §1

These results are taken from US20180177724A1, “SITE-TARGETED NANO-LIPOSOMAL NITROGLYCERIN THERAPEUTICS” (The Regents of the University of California, priority 2015, published 2018).

Read-outs that look alike come from different tables or passages of the source.

As usually defined, the EC50 is the concentration that produces a half-maximal response. As usually defined, the IC50 is the concentration needed to halve the response being measured. In the case of `O=[N+]([O-])OCC(CO[N+](=O)[O-])O[N+](=O)[O-]` [NTG, Nitroglycerin], the “effect on U937 monocytic cell adhesion to ECs” value in series [1] is “dose-dependent inhibition”. Besides, the EC50 in series [1] (Homo sapiens, U-937, read-out: EC50, inhibition of human monocyte adhesion to NO-deficient human microvascular ECs) amounted to 0.64 µM. Moreover, the “effective anti-inflammatory NTG dose” value in series [1] (L-NIO-treated ECs, adhesion back to level of untreated ECs) came out at 5 µM. Also, the results for the “U937 cell-EC adhesion after 4 hr treatment” value in series [1] (NTG 5 μM) and in series [1] (free NTG 100 μM) were “significant inhibition of U937 cell-EC adhesion” and “loses its therapeutic effect”, respectively. In addition, in series [1] (free NTG 100 μM, L-NIO-treated ECs), the “loss (decrease) in anti-inflammatory effect at high dose” value is on record as approximately 2 fold. Moreover, the results for the “anti-inflammatory effect of free NTG at the amount equivalent to NTG-NL” value in series [1] (listed as Free NTG) and in series [1] (listed as free NTG) were “does not produce a significant anti-inflammatory effect” and “failed to produce a significant anti-inflammatory effect”, respectively. Moreover, the IC50 in series [2] (Ovis aries, read-out: Mean IC50 of NTG-induced relaxation, arteries pretreated 4 h with free NTG 5 μM) is 0.25 µM; in series [2] (Ovis aries, read-out: Mean IC50 of NTG-induced relaxation, arteries pretreated 4 h with free NTG 100 μM), 15 µM; in series [2] (Ovis aries, read-out: −Log IC50 of NTG-induced relaxation, arteries pretreated 4 h with free NTG 5 μM (converted), mean ± SEM), 0.251 µM; in series [2] (Ovis aries, read-out: −Log IC50 of NTG-induced relaxation, arteries pretreated 4 h with free NTG 100 μM (converted), mean ± SEM), 15.5 µM; in series [2] (read-out: Mean IC50 of NTG-induced relaxation, arteries pretreated 4 h with free NTG 100 μM) it was 15.5 µM. The “Maximal Relaxation (%)” value in series [2] (arteries pretreated 4 h with free NTG 5 μM, mean ± SEM) is recorded as 69 ± 4 %; in series [2] (arteries pretreated 4 h with free NTG 100 μM, mean ± SEM) it was 66 ± 9%. The “increase in mitochondrial superoxide formation” value in series [3] is 2 fold. For the same compound, the “time of clearance of NTG from bloodstream” value in series [4] is 15 to 30 min. Moreover, the “recovery of EC-dependent (extracellular) NO production” value in series [5] is reported as “complete recovery”. In addition, the “effect on ICAM-1 clustering induced by L-NIO” value in series [6] is reported as “inhibited”. Also, the “recovery of intracellular NO in L-NIO-treated cells” value in series [7] was 79%.
